Tests used:
Type in all cases: cell-based
[1] = tested on: Jurkat; assay: MTT assay, cell number relative to vehicle; details: Homo sapiens, T Cell Lymphoblastic Leukemia, 48 hours
[2] = tested on: mixed lineage leukemia cell lines; assay: Apoptotic and dead cells by flow cytometry (YO-PRO-1 / propidium iodide); details: 48 hours; FIG. 2
Procedure: Apoptotic and dead cells were identified by flow cytometric analysis of cells stained with propidium iodide and YO-PRO®-1. Cells undergoing apoptosis are stained with YO-PRO®-1, but are impermeable to propidium iodide. Dead cells and cells in late apoptosis are permeable to both dyes. Viable cells are not stained by either dye. Mean (+/−SEM) percentages of apoptotic and dead cells were derived from 3-7 independent experiments.
(§1) Alternatively, an ALL cell line (REH) was treated with Trichostatin A (TSA), sodium phenyl butyrate (SPB), or vehicle only for 48 hours. MTT or BrdU were added for 4 hours. The relative number of viable cells, as indicated by MTT reduction, was determined (FIG. 1A and Table 1). The relative number of proliferating cells, as indicated by BrdU-incorporation, was measured using an ELISA assay (FIG. 1B). IC50 values were calculated using non-linear regression (Table 1). The percentages of apoptotic and dead cells were determined by flow cytometric analysis of cells stained with YO-PRO®-1 and propidium iodide (FIGS. 2 and 5A). DNA content was determined by flow cytometric analysis of propidium iodide stained cells. The fractions of cells with G1, S, and G2/M phase DNA contents were determined (FIGS. 3 and 5B).

[3] = tested on: Molt-3; assay: MTT assay, cell number relative to vehicle; details: Homo sapiens, Molt-3, T Cell Lymphoblastic Leukemia, 48 hours
[4] = tested on: Molt-4; assay: MTT assay, cell number relative to vehicle; details: Homo sapiens, Molt-4, T Cell Lymphoblastic Leukemia, 48 hours
[5] = tested on: HSB-2; assay: MTT assay, cell number relative to vehicle; details: HSB2, HSB-2 (LCK-TCRβ), T Cell Lymphoblastic Leukemia, 48 hours
[6] = tested on: CEM; assay: MTT assay, cell number relative to vehicle; details: Homo sapiens, CCRF-CEM, T Cell Lymphoblastic Leukemia, 48 hours
[7] = tested on: RCH-AcV; assay: MTT assay, cell number relative to vehicle; details: RCH-AcV (E2A-PBX1), B Cell Lymphoblastic Leukemia, 48 hours
[8] = tested on: REH; assay: MTT assay, cell number relative to vehicle; details: Homo sapiens, REH (TEL-AML1), B Cell Lymphoblastic Leukemia, 48 hours
Procedure: as §1

[9] = tested on: UOCB1; assay: MTT assay, cell number relative to vehicle; details: Homo sapiens, UoC-B1, UOCB1 (E2A-HLF), B Cell Lymphoblastic Leukemia, 48 hours
[10] = tested on: Nalm-6; assay: MTT assay, cell number relative to vehicle; details: Homo sapiens, Nalm-6 (PDGFRβ-TEL), B Cell Lymphoblastic Leukemia, 48 hours
[11] = tested on: HAL-01; assay: MTT assay, cell number relative to vehicle; details: Homo sapiens, HAL-01 (TCF3/E2A-HLF), B Cell Lymphoblastic Leukemia, 48 hours
[12] = tested on: RS4; 11; assay: MTT assay, cell number relative to vehicle; details: Homo sapiens, 11 (MLL-AF4), Biphenotypic Leukemia with Lymphoblastic Features, 48 hours
[13] = tested on: SEM cells; assay: MTT assay, cell number relative to vehicle; details: SEM (MLL-AF4), Biphenotypic Leukemia with Lymphoblastic Features, 48 hours
[14] = tested on: KOPN-8; assay: MTT assay, cell number relative to vehicle; details: Homo sapiens, KOPN-8 (MLL-ENL), Biphenotypic Leukemia with Lymphoblastic Features, 48 hours
[15] = tested on: HEL; assay: MTT assay, cell number relative to vehicle; details: Homo sapiens, Myeloid Leukemia, 48 hours
[16] = tested on: KG1; assay: MTT assay, cell number relative to vehicle; details: Homo sapiens, KG-1, KG1, Myeloid Leukemia, 48 hours
[17] = tested on: U937; assay: MTT assay, cell number relative to vehicle; details: Homo sapiens, U-937, U937, Myeloid Leukemia, 48 hours
[18] = tested on: EOL-1; assay: MTT assay, cell number relative to vehicle; details: Homo sapiens, EOL1, EOL-1 (FIP1L1-PDGFRα), Myeloid Leukemia, 48 hours
[19] = tested on: HL-60; assay: MTT assay, cell number relative to vehicle; details: Homo sapiens, HL-60, Myeloid Leukemia, 48 hours
[20] = tested on: MV4-11; assay: MTT assay, cell number relative to vehicle; details: Homo sapiens, MV4-11 (MLL-AF4), Biphenotypic Leukemia with Myeloid Features, 48 hours
[21] = tested on: Molm-13; assay: MTT assay, cell number relative to vehicle; details: Homo sapiens, Molm-13 (MLL-AF9), Biphenotypic Leukemia with Myeloid Features, 48 hours
[22] = tested on: Molm-14; assay: MTT assay, cell number relative to vehicle; details: Homo sapiens, Molm-14 (MLL-AF9), Biphenotypic Leukemia with Myeloid Features, 48 hours
[23] = tested on: THP-1; assay: MTT assay, cell number relative to vehicle; details: Homo sapiens, THP-1 (MLL-AF9), Biphenotypic Leukemia with Myeloid Features, 48 hours
[24] = tested on: NOMO-1; assay: MTT assay, cell number relative to vehicle; details: Homo sapiens, NOMO-1 (MLL-AF9), Biphenotypic Leukemia with Myeloid Features, 48 hours

O=C(CCCCCCC(=O)Nc1ccccc1)NO [vorinostat, N′-hydroxy-N-phenyl-octanediamide]
IC50 [1]: 810 nM | induction of cell death (apoptotic and dead cells) [2]: dose-dependent cell death

Nc1ccccc1NC(=O)c1ccc(CNC(=O)OCc2cccnc2)cc1 [entinostat, N-(2-aminophenyl)-4-(N-(pyridin-3-ylmethoxycarbonyl)aminomethyl)benzamide]
IC50 [1]: 1270 nM | IC50 [3]: 866 nM | IC50 [4]: 721 nM | IC50 [5]: 1290 nM | IC50 [6]: 1280 nM | IC50 [7]: 723 nM | IC50 [8]: 1500 nM | IC50 [9]: 686 nM | IC50 [10]: 801 nM | IC50 [11]: 499 nM | IC50 [12]: 2420 nM | IC50 [13]: 250 nM | IC50 [14]: 396 nM | IC50 [15]: 957 nM | IC50 [16]: 1540 nM | IC50 [17]: 1000 nM | IC50 [18]: 120 nM | IC50 [19]: 690 nM | IC50 [20]: 362 nM | IC50 [21]: 758 nM | IC50 [22]: 839 nM | IC50 [23]: 4450 nM | IC50 [24]: 587 nM | induction of cell death (apoptotic and dead cells) [2]: dose-dependent cell death
